Assay results taken from US20090054333A1, “Peptide inhibitors of cyclin-dependent kinase activity and uses thereof” (priority 2006, published 2009).
“Also recorded” adds a separate entry of the source.

Columns and labels:
NIH/3T3 cells = experiment: cell cycle analysis by flow cytometry (FACS); format: cell-based; settings: NIH/3T3 transiently transfected, EGFP-gated; 48 h after transfection; propidium iodide
Procedure: A marker plasmid expressing enhanced green fluorescent protein (EGFP)-spectrin was included in the transfection mixture. Control cells, which were not transfected with EGFP-spectrin, were used as the EGFP-negative population. Cells were harvested and examined for their cell cycle states by fluorescence-activated cell sorter (FACS) analysis. After harvest, cells were fixed by adding ice-cold 70% ethanol while vortexing. Fixed cells were stored at 4° C. for at least 30 min and then washed once with PBS. Cells were then stained with 10 μg/ml propidium iodide (Roche Applied Science, Indianapolis, Ind.), 250 μg/ml RNase (Sigma, St. Louis, Mo.) in PBS and incubated at 37° C. for 30 min in the dark. Transfected cells were gated according to their EGFP expression and the DNA content was determined by flow cytometry analysis. The percentage of cells in the different phases of the cell cycle was measured with a FACS Calibur instrument (Becton-Dickinson, San Jose, Calif.) and the data obtained were analyzed by WinMDI 2.8 software. […]
In FIG. 5a, three plasmids were co-expressed with EGFP-spectrin, in a 1:10 ratio, in transient transfection assays. Cells were harvested 48 hours after transfection, stained with propidium iodide and analyzed by flow cytometric gating for both GFP and propidium iodide. […]

cdk2 = experiment: in vitro cdk2 kinase assay with GST-fusion proteins, histone H1 substrate; format: biochemical; parameters: key to Kinase assay (inhibitory effect on cdk2 activity): P=positive; N=negative; settings: for Kinase assay (inhibitory effect on cdk2 activity): 0.1 μg GST-fusion protein, cdk2 immunoprecipitated from NIH/3T3; for inhibitory effect on cdk2 activity / histone H1 phosphorylation in vitro: GST-fusion protein added to cdk2 immunoprecipitate from NIH/3T3
Procedure: Constructs preparation: A prokaryotic expression vector pGEX-2T (Stratagene Inc., La Jolla Calif.) and polymerase chain reaction (PCR) were used to generate chimeric Glutathione-S-Transferase constructs. The primers used by PCR to amplify the fragments that were subcloned in the pGEX-2T were derived from the 5′ and 3′ ends of different regions of the spacer domain of […]. The mammalian expression vector pEF6/V5-His TOPO (Invitrogen Corp, Carlsbad, Calif.) was used to generate the constructs pEF6/V5-His-spacer and pEF6/V5-His-310 that express the correspondent genes with a C-terminal V5 epitope. The spacer and the 310 fragments were PCR-amplified with the respective primers (Table 1) to generate 3′ends of the cDNAs without stop codons and were subsequently subcloned into pEF6/V5-His TOPO (Invitrogen Corp, Carlsbad, Calif.) according to the manufacturer's instructions to obtain cDNAs coding for C-terminal fusion proteins. All generated constructs were confirmed by automated sequencing. Information regarding the primers is available upon request.
GST Fusion protein preparation: XL1-Blue bacteria carrying the pGEX-2T vectors were grown to mid log phase and then induced to express protein by adding 0.25 mM of isopropyl-1-thio-β-D-galactopyranoside (IPTG, Roche Applied Science, Indianapolis, Ind.). The cultures were shaken for 4 h; bacteria were then pelleted and resuspended in NENT buffer (20 mM Tris pH 8, 100 mM NaCl, 1 mM EDTA, 0.5% NP-40). Cell suspensions were sonicated, pelleted and the supernatant collected. The remaining bacteria were then resuspended in NENT buffer plus 2% of N-Lauryl-Sarcosine, pelleted and the supernatants were collected again. The combined supernatants were incubated with Glutathione agarose (Amersham Biosciences, Piscataway, N.J.) overnight at 4° C. The agarose was then pelleted and washed three times in NENT buffer.
Kinase assays: Cell lysates from NIH/3T3 were prepared by resuspending pelleted cells in 500 μl of lysis buffer (50 mM Tris, 5 mM EDTA, 250 mM NaCl, 50 mM NaF, 0.1% Triton, 0.1 mM Na3VO4, plus protease inhibitors). An equal amount of protein for each fraction (100 μg) was immunoprecipitated with a polyclonal anti-cdk2 antibody (De Luca et al., 1997, J Biol Chem, 272, 20971-4). The complexes were pulled down with protein A-Sepharose and washed three times with lysis buffer and twice with lysis buffer containing 400 mM NaCl. The complexes were equilibrated in kinase assay buffer (20 mM HEPES pH 7.4, 10 mM MgAc, […], 1 mM DTT). In order to detect the in vitro inhibition of cdk2 activity, each sample was incubated with an equal amount (0.1 μg) of each pGEX-2T fusion protein, in a final volume of 20 μl of kinase buffer, using 5 μCi/sample of γ-ATP (Amersham Biosciences, Piscataway, N.J.) and 2 μg of Histone H1 for 30 minutes at 30° C. Kinase assays were repeated at least three times, giving an inter assay standard deviation within 10% after normalization for protein amount. In order to evaluate the in vivo inhibition of cdk2 activity, cdk2 was immunoprecipitated, as described above, from NIH/3T3 cells transiently transfected with 5 μg of pEF6/V5-spacer, pEF6/V5-Spa310 or the vector alone as a control. The immunocomplexes were split in two tubes. A half of each sample was assayed for cdk2 activity in a final volume of 20 μl of kinase buffer with 5 μCi/sample of γ-ATP and 2 μg of Histone H1 for 30 min. at 30° C.; the second one was tested in western blot analysis to confirm that all the samples contained the amount of cdk2 immunoprecipitated. Briefly the samples were separated into 12% SDS polyacrylamide gels (SDS-PAGE), and then transferred into a nitrocellulose membrane (Schleicher & Schuell, Germany). The membrane was blocked with 5% non-fat dry milk in 1×TBST and incubated with the polyclonal anti-cdk2 antibody described above. […]

| Molecule | effect on cell cycle distribution (NIH/3T3 cells) | Kinase assay (inhibitory effect on cdk2 activity) (cdk2) | inhibitory effect on cdk2 activity / histone H1 phosphorylation in vitro (cdk2) |
| --- | --- | --- | --- |
| Spa310: pRb2/p130 amino acids 641-679 (39 amino acids long), SEQ ID NO:3; LTPRRVTEVRADTGGLGRSITSPTTLYDRYSSPPASTTR (listed as Homo sapiens) | induced a G0/G1 arrest of the cell cycle | P | able to maintain the specific inhibitory ability; also recorded: strongly and similarly inhibited cdk2 activity |
| Spacer: full-length pRb2/p130 spacer domain, amino acids 616-828 (SEQ ID NO:20) (protein, listed as Homo sapiens) VPTCEEVMPPQNLERADEICIAGSPLTPRRVTEVRADTGGLGRSITSPTTLYDRYSSPPASTTRRRLFVENDSPSDGGTPGRMPPQPLVNAVPVQNVSGETVSVTPVPGQTLVTMATATVTANNGQTVTIPVQGIANENGGITFFPVQVNVGGQAQAVTGSIQPLSAQALAGSLSSQQVTGTTLQVPGQVAIQQISPGGQQQKQGQSVTSSSN | induced a G0/G1 arrest of the cell cycle | P | strongly and similarly inhibited cdk2 activity |
